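How tested: cells in 96-well plates exposed to compound for 48 hours at five concentrations. Abbreviation: GI50, concentration required for 50% inhibition of growth.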 Activity calls are given as the source filed them. Cut-off read from the data, not from the text of the source: active = GI50 up to about 1.1 µM and inactive = higher. Starred links: 1 amine or outer side, 2 acyl side, 3 side chain; linkers in the order of their positions; H or OH if unused. Positions of bridges follow the written chain, without caps; N, C: chain ends. Where a SMILES comes first, the peptide text is derived from it. Non-standard residues stand in square brackets, D forms with d. Residues, ends and D or L forms follow the SMILES beside them. [ ]: non-standard residue; d: D form. The star is where a group is joined. ξ: configuration not given here. X37 = CC[C@H](C)[C@@H](N[*:1])[C@@H](O)CC(=O)O[C@H](C(=O)[C@H](C)C(=O)[*:2])C(C)C; Bn2Val = CC(C)[C@@H](C(=O)*)N(Cc1ccccc1)Cc1ccccc1; NMeY = CN[C@@H](Cc1ccc(O)cc1)C(=O)O; NHPiperonyl = c1cc2c(cc1CN*)OCO2; dNMeL = CN[C@H](CC(C)C)C(=O)O; NMeV = CN[C@H](C(=O)O)C(C)C; dNMeA = CN[C@H](C)C(=O)O; ξΔPro = O=C(O)C1C=CCN1
How the values were obtained:
Assay in all cases: NCI anticancer screen, dose series, 48 h
BT-549 = test system: BT-549
M19-MEL = test system: M19-MEL
HOP-18 = test system: HOP-18
XF498 = test system: XF498
DMS-114 = test system: DMS-114
DLD-1 = test system: DLD-1
DMS-273 = test system: DMS-273
SNB-78 = test system: SNB-78

Structure (SMILES): CN(C)CCCNC(=O)c1c(-c2cccnc2)cnc2ccccc12
- GI50 (BT-549): > 100 µM (inactive)

Structure (SMILES): Cc1c(F)c(N)c2c(=O)cc(-c3ccc(NC(=O)CN(C)C)c(F)c3)oc2c1F
- GI50 (BT-549): > 100 µM (inactive)

Structure (SMILES): COc1c(C(C)(C)C)cc(CC2C(=O)C=CC2=O)cc1C(C)(C)C
- GI50 (BT-549): 23.8 µM (inactive)

Structure (SMILES): Cc1cn(C2CC(O)C(COC(N)=O)O2)c(=O)[nH]c1=O (stereo not given)
- GI50 (BT-549): > 100 µM (inactive)

Structure (SMILES): CCOC(=O)CC[C@H](N)C(=O)N[C@H](Cc1ccc(N(CCCl)CCCl)cc1)C(=O)OCC
- GI50 (BT-549): 9.25 µM (inactive)

Structure (SMILES): CC1(C)OC2COC(c3n[nH]c4c(=O)[nH]c(=O)[nH]c34)C2O1 (stereo not given)
- GI50 (BT-549): > 100 µM (inactive)

Structure (SMILES): CC(C)(C)C(=O)CC1=Nc2ccccc2SC1(O)CC(=O)C(C)(C)C (stereo not given)
- GI50 (BT-549): 15.7 µM (inactive)

Structure (SMILES): CCCCC(=O)NC1(c2cc3ccccc3s2)CCCCC1
- GI50 (BT-549): > 100 µM (inactive)

Structure (SMILES): CCCCCCc1nn2c(-c3ccc(C)cc3)nnc2s1
- GI50 (BT-549): > 100 µM (inactive)

Structure (SMILES): CCCNCC(=O)O[C@]1(CC)C(=O)OCc2c1cc1n(c2=O)Cc2cc3ccccc3nc2-1
- GI50 (M19-MEL): 0.194 µM (active)
- GI50 (HOP-18): 0.123 µM (active)
- GI50 (XF498): < 0.01 µM (active)
- GI50 (DMS-114): 0.0187 µM (active)
- GI50 (DLD-1): 2.07 µM (inactive)
- GI50 (DMS-273): < 0.01 µM (active)

Structure (SMILES): COc1cc(Cl)cc(O)c(=O)c1OC
- GI50 (M19-MEL): 45.8 µM (inactive)
- GI50 (HOP-18): 71.6 µM (inactive)
- GI50 (XF498): > 59.8 µM (inactive)
- GI50 (SNB-78): 16.9 µM (inactive)
- GI50 (DMS-114): 24 µM (inactive)
- GI50 (DLD-1): 37.3 µM (inactive)
- GI50 (DMS-273): 32.2 µM (inactive)

Structure (SMILES): C=C1CC2C[C@H](OS(=O)(=O)c3ccc(C)cc3)C(C1)N2C (stereo not given in full)
- GI50 (BT-549): > 100 µM (inactive)

Structure (SMILES): O=C1CC(c2ccccc2)C2(C(=O)NC(=S)NC2=O)C(c2ccccc2)C1 (stereo not given)
- GI50 (BT-549): > 75 µM (inactive)

Structure (SMILES): O=C1CSC(/C=C/c2ccccc2)N1c1ccc(-c2ccc(-n3c(-c4ccccc4)nc4ccccc4c3=O)cc2)cc1 (stereo not given)
- GI50 (BT-549): 17.2 µM (inactive)

Structure (SMILES): COc1ccc(CNc2nc3cc(C(F)(F)F)ccc3nc2C(=O)O)cc1OC
- GI50 (BT-549): 41.2 µM (inactive)

Structure (SMILES): C/C(CN1C(=O)c2ccccc2C1=O)=N\NS(=O)(=O)c1ccc2ccccc2c1
- GI50 (M19-MEL): > 100 µM (inactive)
- GI50 (HOP-18): > 100 µM (inactive)
- GI50 (SNB-78): > 100 µM (inactive)
- GI50 (DMS-114): > 100 µM (inactive)
- GI50 (DLD-1): > 100 µM (inactive)
- GI50 (DMS-273): > 100 µM (inactive)

Structure (SMILES): O=C(O)CSc1nnc(/C=C/c2ccccc2)[nH]1
- GI50 (M19-MEL): > 100 µM (inactive)
- GI50 (HOP-18): > 92.7 µM (inactive)
- GI50 (XF498): > 100 µM (inactive)
- GI50 (SNB-78): > 100 µM (inactive)
- GI50 (DMS-114): > 64.3 µM (inactive)
- GI50 (DLD-1): > 100 µM (inactive)
- GI50 (DMS-273): > 100 µM (inactive)

Structure (SMILES): O=C1C2c3[nH]c4ccccc4c3C3CCCCCC3C2C(=O)N1c1ccccc1 (stereo not given)
- GI50 (M19-MEL): > 58.1 µM (inactive)
- GI50 (HOP-18): 19.5 µM (inactive)
- GI50 (XF498): 22.9 µM (inactive)
- GI50 (SNB-78): 11.7 µM (inactive)
- GI50 (DMS-114): > 49.9 µM (inactive)
- GI50 (DLD-1): 58.2 µM (inactive)
- GI50 (DMS-273): 37.8 µM (inactive)

Structure (SMILES): CC(C)(C)CNC(=O)NCn1cc(-c2ccccc2)nn1
- GI50 (BT-549): > 100 µM (inactive)

Structure (SMILES): CCC1(CCSC(=N)N)C(=O)NC(=O)NC1=O
- GI50 (BT-549): > 100 µM (inactive)

Structure (SMILES): NC1(P(=O)(O)O)CCCCC1
- GI50 (BT-549): > 100 µM (inactive)

Structure (SMILES): COC(=O)C1CC(c2ccc(Cl)cc2)=NO1 (stereo not given)
- GI50 (M19-MEL): > 100 µM (inactive)
- GI50 (HOP-18): > 100 µM (inactive)
- GI50 (SNB-78): > 100 µM (inactive)
- GI50 (DMS-114): > 100 µM (inactive)
- GI50 (DLD-1): > 100 µM (inactive)
- GI50 (DMS-273): > 100 µM (inactive)

Structure (SMILES): C1=CC2C(C3CN(c4ccccc4)N=C13)C1C3C4C=CC21C=CC43 (stereo not given)
- GI50 (BT-549): > 100 µM (inactive)

Structure (SMILES): Cc1ccc(C2CC(c3ccco3)=NN2c2ccccc2)o1 (stereo not given)
- GI50 (M19-MEL): > 100 µM (inactive)
- GI50 (XF498): > 100 µM (inactive)
- GI50 (SNB-78): > 100 µM (inactive)
- GI50 (DMS-114): > 100 µM (inactive)
- GI50 (DMS-273): > 100 µM (inactive)

Structure (SMILES): Cc1nc2[nH]ccn2c(=O)c1CCO
- GI50 (BT-549): > 10 µM (inactive)

Structure (SMILES): N=c1oc2ccccc2cc1-c1nc2ccccc2[nH]1
- GI50 (BT-549): 27.5 µM (inactive)

Structure (SMILES): Cn1c2ccccc2c(=O)c2c([N+](=O)[O-])ccc(NCCN)c21
- GI50 (M19-MEL): 13 µM (inactive)
- GI50 (HOP-18): 13.3 µM (inactive)
- GI50 (XF498): 15.1 µM (inactive)
- GI50 (SNB-78): 14.5 µM (inactive)
- GI50 (DMS-114): 11.5 µM (inactive)
- GI50 (DMS-273): 3.86 µM (inactive)

Structure (SMILES): CCOC(=O)C1(Cc2ccccc2)C=CN(C(=O)c2ccccc2)C=C1
- GI50 (BT-549): 33.8 µM (inactive)

Structure (SMILES): CC(C)[C@H](NC(=O)[C@H](C(C)C)N(Cc1ccccc1)Cc1ccccc1)C(=O)N(C)[C@H](C(=O)N1CCC[C@H]1C(=O)N(C)[C@H](C)C(=O)NCc1ccc2c(c1)OCO2)C(C)C (Bn2Val-V[NMeV]P[dNMeA]-NHPiperonyl)
- GI50 (BT-549): 13.2 µM (inactive)

Structure (SMILES): Fc1nc(F)nc(-c2c3ccccc3c3n2CCS3)n1
- GI50 (M19-MEL): > 100 µM (inactive)
- GI50 (XF498): 23.4 µM (inactive)
- GI50 (SNB-78): 23 µM (inactive)
- GI50 (DMS-114): > 100 µM (inactive)
- GI50 (DLD-1): 57.8 µM (inactive)
- GI50 (DMS-273): 76.2 µM (inactive)

Structure (SMILES): Cc1cc2c(cc1Cl)SC(NNC1=NCCN1)=NS2(=O)=O
- GI50 (BT-549): > 10 µM (inactive)

Structure (SMILES): CC(C)(C)OC(=O)N1C(c2cccnc2)=CC[C@H]2C3CC=C(c4cccnc4)[C@@]3(C)CC[C@@H]21 (stereo not given in full)
- GI50 (BT-549): 4.53 µM (inactive)

Structure (SMILES): COc1ccc(N2C(=O)CC(=O)N(C(=O)CCCCCCCCC(=O)N3C(=O)CC(=O)N(c4ccc(OC)cc4)C3=S)C2=S)cc1
- GI50 (BT-549): 33.9 µM (inactive)

Structure (SMILES): Cc1nn(-c2ccccc2)c2c1CC(=O)Nc1ccccc1-2
- GI50 (BT-549): 0.687 µM (active)

Structure (SMILES): C/C(=N/NC(=S)N1CCCCC1)c1cccc(/C(C)=N\NC(=S)N2CCCCC2)n1
- GI50 (BT-549): 1.92 µM (inactive)

Structure (SMILES): O=C(Cn1ccc(=O)[nH]c1=O)Nc1ccc(C(=O)O)c(O)c1
- GI50 (BT-549): > 100 µM (inactive)

Structure (SMILES): CC[C@H](C)[C@H]1NC(=O)[C@@H](NC(=O)[C@@H](CC(C)C)N(C)C(=O)C2C=CCN2)[C@@H](C)OC(=O)[C@H](Cc2ccc(OC)cc2)N(C)C(=O)[C@@H]2CCCN2C(=O)[C@H](CC(C)C)NC(=O)[C@@H](C)C(=O)[C@H](C(C)C)OC(=O)C[C@@H]1O (stereo not given in full) (H-[ξΔPro][dNMeL]T[X37]LP[NMeY](Me); ester 3-C)
- GI50 (BT-549): < 0.005 µM (active)

Structure (SMILES): N=c1oc2ccc([N+](=O)[O-])cc2cc1C(=O)Nc1ccccn1
- GI50 (BT-549): 48.4 µM (inactive)

Structure (SMILES): CC(C)=CC(C)C(C(O)CCC1(c2ccoc2)OCCO1)S(=O)(=O)c1ccccc1 (stereo not given)
- GI50 (BT-549): > 100 µM (inactive)

Structure (SMILES): CC1C(OC2O[C@@H]3O[C@@]4(C)CC[C@H]5[C@H](C)CC[C@@H](C2C)[C@@]35O4)O[C@@H]2O[C@@]3(C)CC[C@H]4[C@H](C)CC[C@@H]1[C@@]24O3 (stereo not given in full)
- GI50 (BT-549): > 50 µM (inactive)

Structure (SMILES): O=[N+]([O-])/C=C/c1cn(CCCCCCCCCCCCn2cc(/C=C/[N+](=O)[O-])c3ccccc32)c2ccccc12
- GI50 (BT-549): > 100 µM (inactive)

Structure (SMILES): Cc1c(CCOC=O)c(=O)[nH]c2nncn12
- GI50 (BT-549): > 100 µM (inactive)

Structure (SMILES): COc1cccc(C=C2N=C(c3ccccc3)N(n3c(-c4ccccc4)nc4ccccc4c3=O)C2=O)c1
- GI50 (BT-549): > 100 µM (inactive)

Structure (SMILES): CCCCCOC(=O)C(=O)Nc1[nH]nnc1C(N)=O
- GI50 (BT-549): > 100 µM (inactive)

Structure (SMILES): CCC1=NC(N/N=C/c2ccco2)=N/C1=C\c1ccco1
- GI50 (BT-549): > 100 µM (inactive)

Structure (SMILES): COc1ccc(C2c3cc4c(cc3OC(NNC(N)=O)C2C)OCO4)cc1 (stereo not given)
- GI50 (BT-549): 7.16 µM (inactive)

Structure (SMILES): C=C(C)CC1(O[Si](C)(C)C)C(=O)C(OCC)=C1OCC (stereo not given)
- GI50 (BT-549): > 100 µM (inactive)

Structure (SMILES): NC(CSCc1ccccc1)C(=O)O (stereo not given)
- GI50 (BT-549): > 100 µM (inactive)

Structure (SMILES): S=C(c1c[nH]c2ccccc12)N1CCN(Cc2ccccc2)CC1
- GI50 (BT-549): 14.7 µM (inactive)

Structure (SMILES): O=C(Nc1ccc2nc(O)n[n+]([O-])c2c1)C(F)(F)F
- GI50 (BT-549): > 100 µM (inactive)

Structure (SMILES): O=S(=O)(CCCCl)SCCCCl
- GI50 (BT-549): 11.2 µM (inactive)

Structure (SMILES): CN1CCC(c2c(O)cc(O)c3c(=O)cc(-c4ccccc4Cl)oc23)C(O)C1 (stereo not given)
- GI50 (HOP-18): 0.102 µM (active)
- GI50 (XF498): 0.0492 µM (active)
- GI50 (SNB-78): 0.118 µM (active)
- GI50 (DLD-1): 0.0368 µM (active)
- GI50 (DMS-273): 0.0335 µM (active)

Structure (SMILES): CSc1ncc2c(n1)-c1ccccc1OC2NC1CC1 (stereo not given)
- GI50 (BT-549): 38 µM (inactive)

Structure (SMILES): O=[N+]([O-])C1(C2([N+](=O)[O-])CCCC2)CCCC1
- GI50 (BT-549): > 100 µM (inactive)
